# Reference: ChEMBL document CHEMBL1201862, “PubChem BioAssay data set” (2004)
# The source made the active and inactive calls.
# Tests used:
# cells [1] = assay type: functional, cell-based
# cells [2] = assay type: functional, cell-based; remark: listed apart in the source
# Protein skinhead-1 = target: T1, Protein skinhead-1 (Caenorhabditis elegans, UniProt P34707); assay type: functional
# T1 sequence (P34707 whole entry): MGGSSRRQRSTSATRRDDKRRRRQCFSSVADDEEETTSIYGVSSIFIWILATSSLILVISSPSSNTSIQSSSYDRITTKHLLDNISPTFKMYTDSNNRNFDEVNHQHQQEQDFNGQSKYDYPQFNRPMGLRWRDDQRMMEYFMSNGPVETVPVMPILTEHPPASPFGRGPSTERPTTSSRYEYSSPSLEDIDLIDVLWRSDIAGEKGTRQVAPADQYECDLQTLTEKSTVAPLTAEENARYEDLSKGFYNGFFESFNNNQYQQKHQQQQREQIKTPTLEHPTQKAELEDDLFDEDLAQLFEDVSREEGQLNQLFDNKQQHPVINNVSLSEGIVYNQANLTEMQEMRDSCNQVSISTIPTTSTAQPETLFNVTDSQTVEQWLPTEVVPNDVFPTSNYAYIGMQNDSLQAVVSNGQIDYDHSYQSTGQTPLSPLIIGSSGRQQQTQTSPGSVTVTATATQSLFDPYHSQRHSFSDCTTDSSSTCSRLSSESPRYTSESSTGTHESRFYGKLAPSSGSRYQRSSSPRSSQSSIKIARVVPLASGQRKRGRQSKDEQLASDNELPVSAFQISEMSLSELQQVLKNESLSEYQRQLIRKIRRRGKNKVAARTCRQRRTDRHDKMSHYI
# [3] = target: T2, Long-chain-fatty-acid--AMP ligase FadD28 (Mycobacterium tuberculosis, UniProt P9WQ59); experiment: Fluorescence polarization aasay to screen for inhibitors that compete for the binding of FadD28 to a bisubstrate Measured in Biochemical System Using Plate Reader - 2147-01_Inhibitor_Dose_CherryPick_Activity.; assay type: functional, Mycobacterium tuberculosis H37Rv
# T2 sequence (P9WQ59 whole entry): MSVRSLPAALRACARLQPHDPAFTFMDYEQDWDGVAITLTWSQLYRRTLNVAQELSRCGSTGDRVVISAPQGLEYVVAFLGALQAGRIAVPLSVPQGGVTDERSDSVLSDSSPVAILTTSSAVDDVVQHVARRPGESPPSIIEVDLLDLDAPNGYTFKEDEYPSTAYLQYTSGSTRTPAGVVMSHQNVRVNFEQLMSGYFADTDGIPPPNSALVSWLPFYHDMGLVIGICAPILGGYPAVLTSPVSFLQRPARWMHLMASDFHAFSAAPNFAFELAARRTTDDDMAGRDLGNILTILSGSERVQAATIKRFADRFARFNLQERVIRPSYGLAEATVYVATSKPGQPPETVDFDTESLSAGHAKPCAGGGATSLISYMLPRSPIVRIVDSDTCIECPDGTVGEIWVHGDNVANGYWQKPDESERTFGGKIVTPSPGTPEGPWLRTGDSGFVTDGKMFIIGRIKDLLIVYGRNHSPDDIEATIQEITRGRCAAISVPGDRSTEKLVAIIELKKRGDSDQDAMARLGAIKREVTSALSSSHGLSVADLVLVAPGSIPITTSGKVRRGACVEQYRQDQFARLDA
# [4] = growth inhibition of PfATP4-mutant resistant parasites – NITD609-resistant line, SYBR Green, dry powder, dose response (AID 1159571); assay type: functional, cell-based;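 further: parasites synchronized at ring stage by sorbitol before testing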
# [5] = toxicity to human hepatoma HepG2 cells – cell-based, cherry-picked samples, cytotoxicity control, dose response (AID 1159577); assay type: functional
# [6] = P. falciparum Dd2 growth inhibitors, dose response, SYBR Green, cherry-picked samples (AID 1159567); assay type: functional, cell-based
# [7] = Dd2 malaria parasite growth inhibition potency – SYBR Green, dry powder samples, dose response (AID 1159566); assay type: functional, cell-based;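 further: potency for growth inhibition with lower SYBR green DNA signal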
# [8] = growth inhibition of yeast DHODH-expressing 3D7 parasites – SYBR Green, dry powder samples, dose response (AID 1159570); assay type: functional, cell-based;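 further: parasite growth measured after 72 hours of compound exposure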
# [9] = toxicity to human HepG2 hepatoma cells – cell-based, plate reader, dry powder samples, cytotoxicity control, dose response (AID 1159569); assay type: functional;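 further: inhibitor potency with signal falling toward the positive control level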
# [10] = DRD fibroblast viability loss – cell-based, non-viral oncogenic, luminescence, dose response (AID 1934); assay type: functional; settings: Homo sapiens
# BJ [11] = experiment: BJ-TERT-LT-ST fibroblast viability loss – cell-based, RAS-independent, luminescence, dose response (AID 1935); assay type: functional; settings: Homo sapiens;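 further: BJ fibroblasts immortalized with TERT plus LT and ST oncogenes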
# BJ [12] = experiment: BJ-TERT fibroblast viability loss – cell-based, RAS-independent, luminescence, dose response (AID 1933); assay type: functional; settings: Homo sapiens
# BJ [13] = experiment: cells; assay type: functional, cell-based; settings: Homo sapiens
# [14] = Trypanosoma cruzi growth suppression in host cells – NIH3T3 host cells, beta-gal luminescence, confirmation (AID 2044); assay type: functional, cell-based;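 further: intracellular parasites grown in NIH/3T3 mouse fibroblasts as host cells; luminescent beta-galactosidase reporter signal from transgenic T. cruzi replicating inside host cells; inhibitors lower the luminescence signal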
# [15] = NIH3T3 cell viability loss – ATP luminescence, mouse fibroblasts, counter-screen, dose response (AID 2010); assay type: functional, cell-based;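 further: cells exposed to compound for about 90 hours before reading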
SMILES,AC50 [3],AC50 [4],AC50 [5],AC50 [6],AC50 [7],AC50 [8],AC50 [9],also measured
O=C(CSc1n[nH]c(-c2ccccc2)n1)NC(=O)NCc1ccco1,,,,,,,,EC50 (cells [1]): > 29.9 µM (inactive); IC50 (cells [2]): > 29.9 µM (inactive)
CCn1c(CSc2nnc(-c3ccncc3)n2C)nc2cc(C(=O)O)ccc21,> 100 µM (inactive),,,,,,,IC50 (Protein skinhead-1): > 100 µM (inactive)
O=C(Cn1nnc(-c2ccc3c(c2)OCO3)n1)Nc1ccccc1C(=O)O,32 µM (inactive),,,,,,,
C[C@H](CO)N1C[C@H](C)[C@@H](CN(C)S(=O)(=O)c2cccs2)Oc2ccc(NC(=O)Nc3ccc(C(F)(F)F)cc3)cc2C1=O,> 100 µM (inactive),,,,,,,
COc1ccc(CN2CC3(C2)CN(C(=O)CN(C)C)[C@H](CO)c2[nH]c4cc(OC)ccc4c23)cc1,,2.51 µM (active),35.4 µM (active),2.87 µM (active),1.64 µM (active),1.6 µM (active),13.6 µM (active),
COc1ccccc1C#Cc1ccc2c(c1)[C@@H]1NCC[C@@H]1[C@H](CO)N2,,4.53 µM (active),> 39 µM (inactive),2.56 µM (active),1.94 µM (active),3.15 µM (active),37.3 µM (active),
C[C@@H]1CN([C@@H](C)CO)C(=O)c2c(c3ccccc3n2C)-c2ccccc2CO[C@@H]1CN(C)Cc1ccc(Cl)c(Cl)c1,,1.73 µM (active),22.3 µM (active),1.34 µM (active),1.11 µM (active),2.24 µM (active),22.3 µM (active),
Cc1nc(N2CCCCC2)sc1C(=O)c1ccc(Cl)c([N+](=O)[O-])c1,,,,,,,,EC50 [10]: 15.6 µM (active); EC50 (BJ [11]): > 75 µM (inconclusive); EC50 (BJ [12]): 9.77 µM (active); EC50 (BJ [13]): > 150 µM (not active)
O=C(Nc1ccc(Cl)cc1)N[C@@H]1c2c(ccc3ccccc23)OC[C@@H]1CO,85.5 µM (active),,,,,,,
COc1ccccc1C#Cc1ccc([C@@H]2[C@@H](CO)N(C(=O)C3CCCCC3)[C@H]2C#N)cc1,,1.06 µM (active),> 39 µM (inactive),2.73 µM (active),0.872 µM (active),1.35 µM (active),16.4 µM (active),
COc1cc(/C=N/NC(N)=S)ccc1OCc1ccc(C)cc1,69.9 µM (active),,,,,,,EC50 [14]: 0.566 µM (active); EC50 [15]: 8.5 µM (active)
